In article PMC12250302, “Synthesis, Antimicrobial Activities, and Model of Action of Novel Tetralone Derivatives Containing Aminoguanidinium Moiety” (International Journal of Molecular Sciences, 2025):
≈ marks a conversion by molar mass, not a printed value.

Columns and labels:
Assay in all cases: MIC and MBC testing, broth microdilution
E. faecium ATCC 35667 = type: cell-based, Enterococcus faecium; details: Enterococcus faecium, ATCC35667, E. faecium ATCC 35667; for MIC: 18 h, read-out: MIC; for MBC: read-out: MBC
Excerpt: (§1) The minimum inhibitory concentrations (MICs) and minimum bactericidal concentrations (MBCs) of the synthesized compounds effective against ESKAPE strains, S. aureus clinical isolates, and MRSA were investigated by the broth dilution method. Levofloxacin is a broad-spectrum antibacterial agent that is widely used in the treatment of ESKAPE infections. Therefore, levofloxacin was selected as the positive control for the preliminary activity screening. DMSO (0.1%) was selected as the negative control.
(§2) The minimum inhibitory concentration (MIC) of all synthesized compounds was tested by the broth microdilution method. In brief, compounds dissolved in DMSO were diluted twice continuously in a 96-well plate with MH broth. The ESKAPE pathogens (E. coli ATCC 25922, S. aureus ATCC 29213, K. pneumoniae ATCC 700603, A. baumannii ATCC 19606, P. aeruginosa ATCC 27853, and E. faecium ATCC 35667), clinical S. aureus isolates (LMY45, LMY46, LMY47, and LMY48) and methicillin-resistant Staphylococcus aureus (MRSA-1 and MRSA-2) were cultured in MH broth to logarithmic growth phase and then diluted to 1 × 10^6 CFU/mL in MH broth. Subsequently, the diluted bacterial solution was mixed with the diluted compound solution in a 96-well plate and incubated at 37 °C for a duration of 18 h. The MIC of the compounds was recorded as the lowest concentration at which no visible growth was observed. […] Each concentration was replicated thrice.

S. aureus ATCC 29213 = type: cell-based, Staphylococcus aureus; details: Staphylococcus aureus, ATCC29213, S. aureus ATCC 29213; for MIC: 18 h, read-out: MIC; for MBC: read-out: MBC
Excerpt: as §1, §2

[1] = test system: K. pneumoniae ATCC 700603; type: cell-based, Klebsiella pneumoniae; details: Klebsiella pneumoniae; for MIC: ATCC700603, 18 h, read-out: MIC; for MBC: ATCC700603, read-out: MBC
Excerpt: as §1, §2

A. baumannii ATCC 19606 = type: cell-based, Acinetobacter baumannii; details: Acinetobacter baumannii; for MIC: ATCC19606, 18 h, read-out: MIC; for MBC: ATCC19606, read-out: MBC
Excerpt: as §1, §2

P. aeruginosa ATCC 27853 = type: cell-based, Pseudomonas aeruginosa; details: Pseudomonas aeruginosa; for MIC: ATCC27853, 18 h, read-out: MIC; for MBC: ATCC27853, read-out: MBC
Excerpt: as §1, §2

E. coli ATCC 25922 = type: cell-based, Escherichia coli; details: Escherichia coli; for MIC: ATCC25922, 18 h, read-out: MIC; for MBC: ATCC25922, read-out: MBC
Excerpt: as §1, §2

MRSA-1 = type: cell-based, Staphylococcus aureus; details: Staphylococcus aureus, MRSA-1; for MIC: 18 h, read-out: MIC; for MBC: read-out: MBC
Experimental: (§3) Furthermore, the MBC values of the compounds were detected.
as §2, with “h.” for “h. The MIC of the compounds was recorded as the lowest concentration at which no visible growth was observed.”

MRSA-2 = type: cell-based, Staphylococcus aureus; details: Staphylococcus aureus, MRSA-2; for MIC: 18 h, read-out: MIC; for MBC: read-out: MBC
Experimental: as §3
as §2, with “h.” for “h. The MIC of the compounds was recorded as the lowest concentration at which no visible growth was observed.”

[2] = test system: clinical S. aureus isolate LMY45; type: cell-based, Staphylococcus aureus; details: Staphylococcus aureus, LMY45; for MIC: 18 h, read-out: MIC; for MBC: read-out: MBC
Experimental: as §3
as §2, with “h.” for “h. The MIC of the compounds was recorded as the lowest concentration at which no visible growth was observed.”

[3] = test system: clinical S. aureus isolate LMY46; type: cell-based, Staphylococcus aureus; details: Staphylococcus aureus, LMY46; for MIC: 18 h, read-out: MIC; for MBC: read-out: MBC
Experimental: as §3
as §2, with “h.” for “h. The MIC of the compounds was recorded as the lowest concentration at which no visible growth was observed.”

[4] = test system: clinical S. aureus isolate LMY47; type: cell-based, Staphylococcus aureus; details: Staphylococcus aureus, LMY47; for MIC: 18 h, read-out: MIC; for MBC: read-out: MBC
Experimental: as §3
as §2, with “h.” for “h. The MIC of the compounds was recorded as the lowest concentration at which no visible growth was observed.”

[5] = test system: clinical S. aureus isolate LMY48; type: cell-based, Staphylococcus aureus; details: Staphylococcus aureus, LMY48; for MIC: 18 h, read-out: MIC; for MBC: read-out: MBC
Experimental: as §3
as §2, with “h.” for “h. The MIC of the compounds was recorded as the lowest concentration at which no visible growth was observed.”

Compound | MIC (E. faecium ATCC 35667) [µg/mL] | MIC (S. aureus ATCC 29213) [µg/mL] | MIC [1] [µg/mL] | MIC (A. baumannii ATCC 19606) [µg/mL] | MIC (P. aeruginosa ATCC 27853) [µg/mL] | MIC (E. coli ATCC 25922) [µg/mL] | MIC (MRSA-1) [µg/mL] | MIC (MRSA-2) [µg/mL] | MIC [2] [µg/mL] | MIC [3] [µg/mL] | MIC [4] [µg/mL] | MBC (E. faecium ATCC 35667) [µg/mL] | MBC (S. aureus ATCC 29213) [µg/mL] | MBC (A. baumannii ATCC 19606) [µg/mL] | MBC (E. coli ATCC 25922) [µg/mL] | MBC (MRSA-1) [µg/mL] | MBC (MRSA-2) [µg/mL] | MBC [2] [µg/mL] | MBC [3] [µg/mL] | MBC [4] [µg/mL] | also measured
[H]/N=C(\N)NN=C1CCCc2cc(OCc3cccc(-c4ccccc4)c3)ccc21 [Compound 1W, (E)-2-(6-([1,1’-biphenyl]-3-ylmethoxy)-3,4-dihydronaphthalen-1(2H)-ylidene)hydrazine-1-carboximidamide] | 2 (≈ 5.2 µM) | 2 (≈ 5.2 µM) | > 32 | 32 (≈ 83.2 µM) | > 32 | 32 (≈ 83.2 µM) | 4 (≈ 10.4 µM) | 2 (≈ 5.2 µM) | 2 (≈ 5.2 µM) | 2 (≈ 5.2 µM) | 2 (≈ 5.2 µM) | 16 (≈ 41.6 µM) | 16 (≈ 41.6 µM) | 32 (≈ 83.2 µM) | 32 (≈ 83.2 µM) | 32 (≈ 83.2 µM) | 4 (≈ 10.4 µM) | 8 (≈ 20.8 µM) | 8 (≈ 20.8 µM) | 8 (≈ 20.8 µM) | MIC [5]: 2 µg/mL (≈ 5.2 µM); MBC [5]: 4 µg/mL (≈ 10.4 µM)
[H]/N=C(\N)NN=C1CCCc2cc(OCc3ccc(F)cc3)ccc21 [Compound 1C, (E)-2-(6-((4-fluorobenzyl)oxy)-3,4-dihydronaphthalen-1(2H)-ylidene)hydrazine-1-carboximidamide] | 4 (≈ 12.3 µM) | 4 (≈ 12.3 µM) | 16 (≈ 49 µM) | 8 (≈ 24.5 µM) | 32 (≈ 98 µM) | 8 (≈ 24.5 µM) | 2 (≈ 6.13 µM) | 4 (≈ 12.3 µM) | 2 (≈ 6.13 µM) | 2 (≈ 6.13 µM) | 2 (≈ 6.13 µM) | 16 (≈ 49 µM) | 16 (≈ 49 µM) | 8 (≈ 24.5 µM) | 8 (≈ 24.5 µM) | 16 (≈ 49 µM) | 8 (≈ 24.5 µM) | 4 (≈ 12.3 µM) | 8 (≈ 24.5 µM) | 8 (≈ 24.5 µM) | MBC [1]: 16 µg/mL (≈ 49 µM); MBC (P. aeruginosa ATCC 27853): 32 µg/mL (≈ 98 µM); MIC [5]: 4 µg/mL (≈ 12.3 µM); MBC [5]: 4 µg/mL (≈ 12.3 µM)
[H]/N=C(\N)NN=C1CCCc2cc(OCc3cc(F)ccc3F)ccc21 [Compound 1E, (E)-2-(6-((2,5-difluorobenzyl)oxy)-3,4-dihydronaphthalen-1(2H)-ylidene)hydrazine-1-carboximidamide] | 4 (≈ 11.6 µM) | 2 (≈ 5.81 µM) | 32 (≈ 92.9 µM) | 8 (≈ 23.2 µM) | > 32 | 8 (≈ 23.2 µM) | 2 (≈ 5.81 µM) | 2 (≈ 5.81 µM) | 2 (≈ 5.81 µM) | 2 (≈ 5.81 µM) | 2 (≈ 5.81 µM) | 16 (≈ 46.5 µM) | 16 (≈ 46.5 µM) | 8 (≈ 23.2 µM) | 8 (≈ 23.2 µM) | 32 (≈ 92.9 µM) | 8 (≈ 23.2 µM) | 4 (≈ 11.6 µM) | 8 (≈ 23.2 µM) | 8 (≈ 23.2 µM) | MBC [1]: 32 µg/mL (≈ 92.9 µM); MIC [5]: 2 µg/mL (≈ 5.81 µM); MBC [5]: 2 µg/mL (≈ 5.81 µM)

Continued, in another order:

MIC (E. faecium ATCC 35667) [µg/mL] | MIC (S. aureus ATCC 29213) [µg/mL] | MIC [1] [µg/mL] | MIC (A. baumannii ATCC 19606) [µg/mL] | MIC (P. aeruginosa ATCC 27853) [µg/mL] | MIC (E. coli ATCC 25922) [µg/mL] | MIC (MRSA-1) [µg/mL] | MIC (MRSA-2) [µg/mL] | MIC [2] [µg/mL] | MIC [3] [µg/mL] | MIC [4] [µg/mL] | Compound | MBC (E. faecium ATCC 35667) [µg/mL] | MBC (S. aureus ATCC 29213) [µg/mL] | MBC (A. baumannii ATCC 19606) [µg/mL] | MBC (E. coli ATCC 25922) [µg/mL] | MBC (MRSA-1) [µg/mL] | MBC (MRSA-2) [µg/mL] | MBC [2] [µg/mL] | MBC [3] [µg/mL] | MBC [4] [µg/mL] | also measured
2 (≈ 6.05 µM) | 2 (≈ 6.05 µM) | > 32 | 8 (≈ 24.2 µM) | 32 (≈ 96.8 µM) | 4 (≈ 12.1 µM) | 1 (≈ 3.03 µM) | 1 (≈ 3.03 µM) | 1 (≈ 3.03 µM) | 1 (≈ 3.03 µM) | 2 (≈ 6.05 µM) | [H]/N=C(\N)NN=C1CCCc2cc(OCCCCCCCC)ccc21 [Compound 2E, (E)-2-(6-(octyloxy)-3,4-dihydronaphthalen-1(2H)-ylidene)hydrazine-1-carboximidamide] | 4 (≈ 12.1 µM) | 2 (≈ 6.05 µM) | 32 (≈ 96.8 µM) | 16 (≈ 48.4 µM) | 8 (≈ 24.2 µM) | 2 (≈ 6.05 µM) | 4 (≈ 12.1 µM) | 4 (≈ 12.1 µM) | 4 (≈ 12.1 µM) | MBC (P. aeruginosa ATCC 27853): > 32 µg/mL; MIC [5]: 1 µg/mL (≈ 3.03 µM); MBC [5]: 2 µg/mL (≈ 6.05 µM)
2 (≈ 5.64 µM) | 4 (≈ 11.3 µM) | > 32 | 8 (≈ 22.6 µM) | 32 (≈ 90.3 µM) | 8 (≈ 22.6 µM) | 2 (≈ 5.64 µM) | 2 (≈ 5.64 µM) | 4 (≈ 11.3 µM) | 2 (≈ 5.64 µM) | 2 (≈ 5.64 µM) | CC(C)=CCC/C(C)=C/COc1ccc2c(c1)CCC/C2=N\NC(=N)N [Compound 2J, 2-((E)-6-(((E)-3,7-dimethylocta-2,6-dien-1-yl)oxy)-3,4-dihydronaphthalen-1(2H)-ylidene)hydrazine-1-carboximidamide] | 8 (≈ 22.6 µM) | 8 (≈ 22.6 µM) | 16 (≈ 45.1 µM) | 16 (≈ 45.1 µM) | 16 (≈ 45.1 µM) | 16 (≈ 45.1 µM) | 16 (≈ 45.1 µM) | > 32 | 16 (≈ 45.1 µM) | MBC (P. aeruginosa ATCC 27853): 32 µg/mL (≈ 90.3 µM); MIC [5]: 4 µg/mL (≈ 11.3 µM); MBC [5]: 8 µg/mL (≈ 22.6 µM)
